Source: patent US20100267561A1, “HERBICIDAL PYRIDAZINONE DERIVATIVES” (priority 2007, published 2010)

Tests used:
Assay type in all cases: in vivo
[1] = system: velvetleaf (Abutilon theophrasti); assay: Test B pre-/postemergence plant response
Text: (§1) Seeds of plant species selected from blackgrass (Alopecurus myosuroides), downy bromegrass (Bromus tectorum), green foxtail (Setaria viridis), Italian ryegrass (Lolium multiflorum), wheat (Triticum aestivum), wild oat (Avena fatua), catchweed bedstraw (Galium aparine), bermudagrass (Cynodon dactylon), surinam grass (Brachiaria decumbens), cocklebur (Xanthium strumarium), corn (Zea mays), large crabgrass (Digitaria sanguinalis), woolly cupgrass (Eriochloa villosa), giant foxtail (Setaria faberii), goosegrass (Eleusine indica), johnsongrass (Sorghum halepense), kochia (Kochia scoparia), lambsquarters (Chenopodium album), morningglory (Ipomoea coccinea), eastern black (E.B.) nightshade (Solanum ptycanthum), yellow nutsedge (Cyperus esculentus), pigweed (Amaranthus retroflexus), common ragweed (Ambrosia elation), Russian thistle (Salsola iberica), soybean (Glycine max), common (oilseed) sunflower (Helianthus annuus), and velvetleaf (Abutilon theophrasti) were planted and treated preemergence with test chemicals formulated in a non-phytotoxic solvent mixture which included a surfactant.
(§2) At the same time, plants selected from these crop and weed species and also winter barley (Hordeum vulgare), canarygrass (Phalaris minor), chickweed (Stellaria media) and windgrass (Apera spica-venti) were treated with postemergence applications of some of the test chemicals formulated in the same manner. Plants ranged in height from 2 to 18 cm (1- to 4-leaf stage) for postemergence treatments.
(§3) Plant species in the flooded paddy test consisted of rice (Oryza sativa), umbrella sedge (Cyperus difformis), ducksalad (Heteranthera limosa) and barnyardgrass (Echinochloa crus-galli) grown to the 2-leaf stage for testing. At time of treatment, test pots were flooded to 3 cm above the soil surface, treated by application of test compounds directly to the paddy water, and then maintained at that water depth for the duration of the test. Treated plants and controls were maintained in a greenhouse for 13 to 15 days, after which time all species were compared to controls and visually evaluated. Plant response ratings, summarized in Table B, are based on a scale of 0 to 100 where 0 is no effect and 100 is complete control. A dash (-) response means no test result.

[2] = system: woolly cupgrass (Eriochloa villosa); assay: Test B pre-/postemergence plant response
Text: as §1, §2, §3

[3] = system: cocklebur (Xanthium strumarium); assay: Test B pre-/postemergence plant response
Text: as §1, §2, §3

[4] = system: giant foxtail (Setaria faberii); assay: Test B pre-/postemergence plant response
Text: as §1, §2, §3

[5] = system: bermudagrass (Cynodon dactylon); assay: Test B pre-/postemergence plant response
Text: as §1, §2, §3

[6] = system: downy bromegrass (Bromus tectorum); assay: Test B pre-/postemergence plant response
Text: as §1, §2, §3

[7] = system: Italian ryegrass (Lolium multiflorum); assay: Test B pre-/postemergence plant response
Text: as §1, §2, §3

corn (Zea mays) = assay: Test B pre-/postemergence plant response
Text: as §1, §2, §3

[8] = system: yellow nutsedge (Cyperus esculentus); assay: Test B pre-/postemergence plant response
Text: as §1, §2, §3

[9] = system: ducksalad (Heteranthera limosa); assay: Test B flooded paddy test plant response
Method in brief: (§4)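 Paddy-water application to 2-leaf plants in pots held under 3 cm of flooding; response is a 0–100 visual control rating against controls after 13 to 15 days, and a dash marks a missing result.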

rice (Oryza sativa) = assay: Test B flooded paddy test plant response
Method in brief: as §4

[10] = system: barnyardgrass (Echinochloa crus-galli); assay: Test B flooded paddy test plant response
Method in brief: as §4

[11] = system: umbrella sedge (Cyperus difformis); assay: Test B flooded paddy test plant response
Method in brief: as §4

[12] = Postemergence, 31 g ai/ha, scale 0 to 100, 0 no effect, 100 complete control
[13] = Postemergence, 62 g ai/ha, scale 0 to 100
[14] = Postemergence, 125 g ai/ha, scale 0 to 100
[15] = Postemergence, 250 g ai/ha, scale 0 to 100
[16] = Preemergence, 31 g ai/ha, 0 to 100 scale, 0 no effect, 100 complete control
[17] = Preemergence, 62 g ai/ha, scale 0 to 100
[18] = Preemergence, 125 g ai/ha, scale 0 to 100
[19] = Preemergence, 250 g ai/ha, scale 0 to 100
[20] = Flood (flooded paddy test), 62 g ai/ha, scale 0 to 100, 0 no effect, 100 complete control
[21] = Flood (flooded paddy test), 125 g ai/ha, scale 0 to 100, 0 no effect, 100 complete control
[22] = Flood (flooded paddy test), 250 g ai/ha, scale 0 to 100, 0 no effect, 100 complete control
[23] = Flood, 31 g ai/ha, scale 0 to 100

Cc1cc(-c2ccc(Br)cc2)nn1-c1c(OC(=O)C2CC2)cnn(C)c1=O [Compound 5]
85: Plant response rating, Bromegrass, Downy [6, 17]
40: Plant response rating, Bromegrass, Downy [6, 16] | Plant response rating, Ducksalad [9, 20]
30: Plant response rating, Ducksalad [9, 23]
15: Plant response rating, Rice (rice (Oryza sativa); [23])
75: Plant response rating, Rice (rice (Oryza sativa); [21])
65: Plant response rating, Ducksalad [9, 22]
20: Plant response rating, Cocklebur [3, 15] | Plant response rating, Barnyardgrass [10, 23]
90: Plant response rating, Cupgrass, Woolly [2, 17] | Plant response rating, Corn (corn (Zea mays); [12]) | Plant response rating, Barnyardgrass [10, 22]
95: Plant response rating, Cupgrass, Woolly [2, 12] | Plant response rating, Corn (corn (Zea mays); [16]) | Plant response rating, Corn (corn (Zea mays); [17])
60: Plant response rating, Nutsedge, Yellow [8, 14] | Plant response rating, Rice (rice (Oryza sativa); [20])
0: Plant response rating, Velvetleaf [1, 12] | Plant response rating, Velvetleaf [1, 13] | Plant response rating, Velvetleaf [1, 14] | Plant response rating, Velvetleaf [1, 16] | Plant response rating, Velvetleaf [1, 17] | Plant response rating, Velvetleaf [1, 18] | Plant response rating, Velvetleaf [1, 19] | Plant response rating, Cocklebur [3, 12] | Plant response rating, Cocklebur [3, 13] | Plant response rating, Cocklebur [3, 14] | Plant response rating, Cocklebur [3, 16] | Plant response rating, Cocklebur [3, 17] | Plant response rating, Cocklebur [3, 18] | Plant response rating, Nutsedge, Yellow [8, 12] | Plant response rating, Nutsedge, Yellow [8, 13] | Plant response rating, Nutsedge, Yellow [8, 17] | Plant response rating, Nutsedge, Yellow [8, 18]
80: Plant response rating, Rice (rice (Oryza sativa); [22]) | Plant response rating, Sedge, Umbrella [11, 21] | Plant response rating, Sedge, Umbrella [11, 22]
5: Plant response rating, Bromegrass, Downy [6, 12]
50: Plant response rating, Cupgrass, Woolly [2, 16] | Plant response rating, Bromegrass, Downy [6, 13] | Plant response rating, Bromegrass, Downy [6, 14] | Plant response rating, Ducksalad [9, 21] | Plant response rating, Barnyardgrass [10, 20]
98: Plant response rating, Foxtail, Giant [4, 16] | Plant response rating, Bermudagrass [5, 16] | Plant response rating, Bromegrass, Downy [6, 18] | Plant response rating, Corn (corn (Zea mays); [18])
100: Plant response rating, Cupgrass, Woolly [2, 13] | Plant response rating, Cupgrass, Woolly [2, 14] | Plant response rating, Cupgrass, Woolly [2, 15] | Plant response rating, Cupgrass, Woolly [2, 18] | Plant response rating, Cupgrass, Woolly [2, 19] | Plant response rating, Foxtail, Giant [4, 12] | Plant response rating, Foxtail, Giant [4, 13] | Plant response rating, Foxtail, Giant [4, 14] | Plant response rating, Foxtail, Giant [4, 15] | Plant response rating, Foxtail, Giant [4, 17] | Plant response rating, Foxtail, Giant [4, 18] | Plant response rating, Foxtail, Giant [4, 19] | Bermudagrass plant response rating ([5]; 250 g ai/ha, preemergence, 0-100 scale) | Plant response rating, Bermudagrass [5, 12] | Plant response rating, Bermudagrass [5, 13] | Plant response rating, Bermudagrass [5, 14] | Plant response rating, Bermudagrass [5, 15] | Plant response rating, Bermudagrass [5, 17] | Plant response rating, Bermudagrass [5, 18] | Plant response rating, Bromegrass, Downy ([6]; Preemergence, 250 g ai/ha, scale 0 to 100 (0 no effect, 100 complete control)) | Plant response rating, Ryegrass, Italian [7, 12] | Plant response rating, Ryegrass, Italian [7, 13] | Plant response rating, Ryegrass, Italian [7, 14] | Plant response rating, Ryegrass, Italian [7, 15] | Plant response rating, Ryegrass, Italian [7, 16] | Plant response rating, Ryegrass, Italian [7, 17] | Plant response rating, Ryegrass, Italian [7, 18] | Plant response rating, Ryegrass, Italian [7, 19] | Plant response rating, Corn (corn (Zea mays); [13]) | Plant response rating, Corn (corn (Zea mays); [14]) | Plant response rating, Corn (corn (Zea mays); [15]) | Plant response rating, Corn (corn (Zea mays); [19])
70: Plant response rating, Barnyardgrass [10, 21] | Plant response rating, Sedge, Umbrella [11, 20] | Plant response rating, Sedge, Umbrella [11, 23]
10: Plant response rating, Velvetleaf [1, 15]
